In patent publication US20240408222A1, “COMPOUNDS, PHARMACEUTICAL COMPOSITIONS, AND METHODS FOR THE TREATMENT, PREVENTION, OR MANAGEMENT OF HYPERPRO[…]” (VINCERX PHARMA GMBH, priority 2021, published 2024):

Experiments:
[1] = in vivo; conditions: male, rat, plasma, iv
Experimental: Male rats (n=3) were given an intravenous 0.5 or 2.0 mg/kg bolus dose of test article dissolved in plasma with 1% DMSO and 2% ethanol (C30 only). Serial blood samples were collected up to 24 hours post-dose. Plasma was harvested from blood samples and stored frozen until sample analysis. Test article plasma concentrations were analyzed by LC/MS/MS.

[2] = tested on: NCI H292; test: Cytotoxicity in vitro in presence/absence of cathepsin B; assay type: cell-based, human
[3] = biological target: cathepsin B (Homo sapiens, UniProt P07858); test: Biochemical cathepsin B cleavage assay (metabolite detection by RP-HPLC)
Experimental: Incubation of samples starts with addition of cathepsin B solution (2.5 μg in […] 50 mM sodium phosphate buffer, pH 6.0/2 mM DTT). The incubation is performed at 40° C., and after 16 h incubation a 40 μL sample is taken and added to 80 μL ice-cold methanol. […] The metabolite (product) and the parent compound (educt) is measured.

[4] = tested on: SUM149; test: Cytotoxicity in vitro in presence/absence of cathepsin B; assay type: cell-based
[5] = tested on: SUM149; test: Cytotoxicity assay (Version 2, automated, AC50) with/without neutrophil elastase; assay type: cell-based; conditions: Version 2, activity concentration at −50%
Outline: (§1)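 An automated MTT read-out (570 nm, 4 h reagent) followed 72 h at 37 °C with compound from 10^−5 to 10^−13 M, in triplicate, tested with and without 10 nM elastase. AC50, the concentration giving −50% metabolic activity, came from a 4-parameter Hill fit. Scaling ran from medium-only wells (−100%) to DMSO controls (0%).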

[6] = tested on: HT29; test: as above; assay type: cell-based, human; conditions: Version 2, activity concentration at −50%
Outline: as §1

[7] = tested on: 786-O; test: as above; assay type: cell-based, human; conditions: Version 2, activity concentration at −50%
Outline: as §1

[8] = tested on: NCI H292; test: as above; assay type: cell-based, human; conditions: Version 2, activity concentration at −50%
Outline: as §1

[9] = tested on: HT29; test: Cytotoxicity in vitro in presence/absence of cathepsin B; assay type: cell-based, human
[10] = tested on: HT29; test: Cytotoxicity in vitro in presence/absence of legumain; assay type: cell-based, human
[11] = tested on: SUM149; test: as above; assay type: cell-based
[12] = biological target: rec. human legumain (Homo sapiens, UniProt Q99538); conditions: for metabolite formation after incubation with legumain: 16 h incubation, 37° C., pH 5,0; for metabolite formation without addition of active legumain: control without active legumain
Experimental: 10 μg rec. human legumain are added to 100 μL activation buffer (50 mM sodium acetate buffer/100 mM NaCl, pH 4,0) and incubated for 2 h at 37° C., before 4.9 mL assay buffer (50 mM MES buffer/250 mM NaCl, pH 5,0) is added (final concentration of rec. hum. legumain: 2 μg/mL). For the selected sample, activated legumain is added to the compound solution. Then the solution is incubated at 37° C. At 16 h-a 50 μL sample is taken and added to 100 μL ice-cold methanol. For the untreated control (0 h) ice-cold methanol is pipetted in a tube before the legumain and compound solution are added. Samples can be stored at −20° C. or analyzed directly by HPLC or LCMS. The metabolite and the parent compound (educt) are measured.
Samples from enzymatic assays are added to the double volume of methanol and incubated for at least 30 min at −20° C. to precipitate proteins. Samples are then centrifuged for 10 min, 16100×g at 4° C. and analyzed by RP-HPLC using a gradient (PLRP-S-A1 79.0% PLRP-S—B1 21.0%, duration 24 min). After the centrifugation the supernatant is collected, calibration curves are obtained using the respective compound and the corresponding metabolite solution. A 10 mM DMSO stock solution is diluted with Methanol to achieve the chosen end concentration.

[13] = tested on: NCI H292; test: Cytotoxicity in vitro in presence/absence of legumain; assay type: cell-based, human
[14] = SUM149, with (+) neutrophil elastase
[15] = SUM149, without (−) neutrophil elastase
[16] = HT29, with (+) neutrophil elastase
[17] = HT29, without (−) neutrophil elastase
[18] = without (−) neutrophil elastase
[19] = NCI H292, with (+) neutrophil elastase
[20] = NCI H292, without (−) neutrophil elastase

rec. human legumain, sequence (Q99538 18-323 limits assumed): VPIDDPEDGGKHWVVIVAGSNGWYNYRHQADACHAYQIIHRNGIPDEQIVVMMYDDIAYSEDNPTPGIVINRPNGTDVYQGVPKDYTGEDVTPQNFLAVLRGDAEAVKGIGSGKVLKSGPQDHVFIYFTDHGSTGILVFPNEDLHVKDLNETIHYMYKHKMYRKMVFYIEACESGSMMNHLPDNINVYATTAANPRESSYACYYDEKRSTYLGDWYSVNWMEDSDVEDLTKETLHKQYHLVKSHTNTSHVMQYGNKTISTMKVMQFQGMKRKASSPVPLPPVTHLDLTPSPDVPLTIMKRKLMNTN

Row | Molecule | AUC ([1]; 2 mg/kg) [ng·h/mL] | Vd ([1]; 2 mg/kg) [L/kg] | clearance ([1]; 2 mg/kg) [mL/min/kg] | half-life ([1]; 2 mg/kg) [h] | AC50 [5, 14] [nM] | AC50 [5, 15] [nM] | AC50 [6, 16] [nM] | AC50 [6, 17] [nM] | AC50 ([7]; with (+) neutrophil elastase) [nM] | AC50 [7, 18] [nM] | AC50 [8, 19] [nM] | AC50 [8, 20] [nM] | IC50 ([10]; HT29, with (+) legumain) [nM] | IC50 ([10]; HT29, without (−) legumain) [nM] | IC50 ([11]; SUM149, with (+) legumain) [nM] | IC50 ([11]; SUM149, without (−) legumain) [nM] | metabolite formation after incubation with legumain [12] | metabolite formation without addition of active legumain [12] | IC50 ([13]; NCI H292, with (+) legumain) [nM] | IC50 ([13]; NCI H292, without (−) legumain) [nM] | further results
1 | CCCNC(=O)Nc1cccc(S(=O)(=O)Nc2cccc([C@H](CC(=O)O)NC(=O)Nc3ccc(NC(=O)NCCOCCOCCOCCC(=O)N[C@@H](CCCCNC(=O)CCOCCOCCOCCNC(=O)Nc4ccc(NC(=O)N[C@H](CC(=O)O)c5cccc(NS(=O)(=O)c6cccc(NC(=O)NCCC)c6)c5)cc4)C(=O)NCCOCCOCCOCCC(=O)N[C@@H](CC(=O)O)C(=O)N4CCC[C@H]4C(=O)N[C@H](C(=O)N=S(C)(=O)Cc4cc5nc(c4)OCCCOc4cc(F)ccc4-c4cc(ncc4F)N5)C(C)C)cc3)c2)c1 (relative stereo) [Compound 33] | 50000 to 150000 | > 0.1 | 0.5 to 5 | 10 to 20 | – | – | – | – | – | – | – | – | – | – | – | – | – | – | – | – | –
2 | CCCNC(=O)Nc1cccc(S(=O)(=O)Nc2cccc([C@@H](CC(=O)O)NC(=O)Nc3ccc(NC(=O)NCCOCCOCCOCCC(=O)N[C@@H](CC(=O)O)C(=O)N4CCC[C@H]4C(=O)N[C@H](C(=O)N=[S@](C)(=O)Cc4cc5cc(c4)O[C@H](C)CCOc4cc(F)ccc4-c4nc(ncc4F)N5)C(C)C)cc3)c2)c1 (relative stereo) [Compound 48] | – | – | – | – | – | – | – | – | – | – | – | – | – | – | – | – | – | – | – | – | AUC ([1]; 0.5 mg/kg): 1000 to 10000 ng·h/mL; Vd ([1]; 0.5 mg/kg): 0.03 to 0.1 L/kg; clearance ([1]; 0.5 mg/kg): > 5 mL/min/kg; half-life ([1]; 0.5 mg/kg): 0.1 to 1 h
3 | CCCNC(=O)Nc1cccc(S(=O)(=O)Nc2cccc([C@@H](CC(=O)O)NC(=O)Nc3ccc(NC(=O)NCCOCCOCCOCCC(=O)N[C@@H](CC(=O)O)C(=O)N4CCC[C@H]4C(=O)N[C@H](C(=O)N=S(C)(=O)Cc4cc5nc(c4)OCCCOc4cc(F)ccc4-c4cc(ncc4F)N5)C(C)C)cc3)c2)c1 (single isomer, unassigned) [Compound 41, disodium 1-{(2S)-2-(carboxylatomethyl)-17-[4-({[(1R)-2-carboxylato-1-{3-[({3-[(propylcarbamoyl)amino]phenyl}sulfonyl)amino]phenyl}ethyl]carbamoyl}amino)anilino]-4,17-dioxo-7,10,13-trioxa-3,16-diazaheptadecan-1-oyl}-L-prolyl-N—[(R*)—{[15,19-difluoro-3,4-dihydro-2H,11H-10,6-(azeno)-12,16-(metheno)-1,5,11,13-benzodioxadiazacyclooctadecin-8-yl]methyl}(methyl)oxido-lambda^6-sulfanylidene]-L-valinamide] | 1000 to 10000 | > 0.1 | 0.5 to 5 | 10 to 20 | – | – | – | – | – | – | – | – | – | – | – | – | – | – | – | – | –
4 | CCCNC(=O)Nc1cccc(S(=O)(=O)Nc2cccc([C@@H](CC(=O)[O-])NC(=O)Nc3ccc(NC(=O)NCCOCCOCCOCCC(=O)N[C@H](C(=O)N[C@@H](CCCNC(N)=O)C(=O)N=[S@@](C)(=O)Cc4cc5cc(c4)OCCCCOc4cc(F)ccc4-c4nc(ncc4F)N5)C(C)C)cc3)c2)c1.[Na+] [Compound 7, sodium N-{14-[4-({[(1R)-2-carboxylato-1-{3-[({3-[(propylcarbamoyl)amino]phenyl}sulfonyl)amino]phenyl}ethyl]carbamoyl}amino)anilino]-14-oxo-4,7,10-trioxa-13-azatetradecan-1-oyl}-L-valyl-N^5-carbamoyl-N—[(S)-{[16,20-difluoro-2,3,4,5-tetrahydro-12H-13,17-(azeno)-11,7-(metheno)-1,6,12,14-benzodioxadiazacyclononadecin-9-yl]methyl}(methyl)oxido-lambda^6-sulfanylidene]-L-ornithinamide] | – | – | – | – | 11 to 100 | 11 to 100 | 11 to 100 | 11 to 100 | 11 to 100 | 11 to 100 | 100 to 1000 | 100 to 1000 | – | – | – | – | – | – | – | – | IC50 ([2]; NCI H292, with (+) cathepsin): 11 to 100 nM; IC50 ([2]; NCI H292, without (−) cathepsin): 11 to 100 nM; metabolite detected after incubation with cathepsin B ([3]; 16 h incubation, 40° C., pH 6.0): 16%; metabolite formation without addition of active cathepsin B ([3]; control without active cathepsin B): no metabolite formation is detected; IC50 ([4]; SUM149, with (+) cathepsin): 11 to 100 nM; IC50 ([4]; SUM149, without (−) cathepsin): > 100 nM; IC50 ([9]; HT29, with (+) cathepsin): > 100 nM; IC50 ([9]; HT29, without (−) cathepsin): > 100 nM
5 | CCCNC(=O)Nc1cccc(S(=O)(=O)Nc2cccc([C@@H](CC(=O)[O-])NC(=O)Nc3ccc(NC(=O)NCCOCCOCCOCCC(=O)N[C@@H](C)C(=O)N(C)[C@@H](C)C(=O)N[C@@H](CC(=O)N=[S@@](C)(=O)Cc4cc5cc(c4)OCCCCOc4cc(F)ccc4-c4nc(ncc4F)N5)C(N)=O)cc3)c2)c1.[Na+] [Compound 8, sodium N-{14-[4-({[(1R)-2-carboxylato-1-{3-[({3-[(propylcarbamoyl)amino]phenyl}sulfonyl)amino]phenyl}ethyl]carbamoyl}amino)anilino]-14-oxo-4,7,10-trioxa-13-azatetradecan-1-oyl}-L-alanyl-N-methyl-L-alanyl-N′—[(S)-{[16,20-difluoro-2,3,4,5-tetrahydro-12H-13,17-(azeno)-11,7-(metheno)-1,6,12,14-benzodioxadiazacyclononadecin-9-yl]methyl}(methyl)oxido-lambda^6-sulfanylidene]-L-aspartamide] | – | – | – | – | 100 to 1000 | > 1000 | 11 to 100 | > 1000 | 100 to 1000 | > 1000 | 100 to 1000 | 100 to 1000 | 11 to 100 | 11 to 100 | 11 to 100 | 11 to 100 | complete metabolite formation | no metabolite formation is detected | 1.1 to 10 | 11 to 100 | –
6 | Sodium N-{14-[4-({[(1S)-2-carboxylato-1-{3-[({3-[(propylcarbamoyl)amino]phenyl}sulfonyl) amino]phenyl}ethyl]carbamoyl}amino)anilino]-14-oxo-4,7,10-trioxa-13-azatetradecan-1-oyl}-L-alanyl-N-methyl-L-alanyl-N′—[(S)-{[16,20-difluoro-2,3,4,5-tetrahydro-12H-13,17-(azeno)-11,7-(metheno)-1,6,12,14-benzodioxadiazacyclononadecin-9-yl]methyl} (methyl)oxido-lambda^6-sulfanylidene]-L-aspartamide [Compound 13] | – | – | – | – | 11 to 100 | > 1000 | 11 to 100 | > 1000 | 11 to 100 | > 1000 | 100 to 1000 | 100 to 1000 | 11 to 100 | 11 to 100 | 11 to 100 | 11 to 100 | complete metabolite formation | no metabolite formation is detected | 11 to 100 | 11 to 100 | –
